Test results published in ChEMBL document CHEMBL3112506, “Synthesis and structure-activity relationship studies of 4-((2-hydroxy-3-methoxybenzyl)amino)benzenesulfonamide derivatives as potent and selective inhibitors of 12-lipoxygenase” (J Med Chem, 2014).
Calls of active or inactive are those of the source. No cut-off for these calls is given here.

How the values were obtained:
[1] = target: T1, Polyunsaturated fatty acid lipoxygenase ALOX12 (Homo sapiens, UniProt P18054)
T1 sequence (P18054 whole entry): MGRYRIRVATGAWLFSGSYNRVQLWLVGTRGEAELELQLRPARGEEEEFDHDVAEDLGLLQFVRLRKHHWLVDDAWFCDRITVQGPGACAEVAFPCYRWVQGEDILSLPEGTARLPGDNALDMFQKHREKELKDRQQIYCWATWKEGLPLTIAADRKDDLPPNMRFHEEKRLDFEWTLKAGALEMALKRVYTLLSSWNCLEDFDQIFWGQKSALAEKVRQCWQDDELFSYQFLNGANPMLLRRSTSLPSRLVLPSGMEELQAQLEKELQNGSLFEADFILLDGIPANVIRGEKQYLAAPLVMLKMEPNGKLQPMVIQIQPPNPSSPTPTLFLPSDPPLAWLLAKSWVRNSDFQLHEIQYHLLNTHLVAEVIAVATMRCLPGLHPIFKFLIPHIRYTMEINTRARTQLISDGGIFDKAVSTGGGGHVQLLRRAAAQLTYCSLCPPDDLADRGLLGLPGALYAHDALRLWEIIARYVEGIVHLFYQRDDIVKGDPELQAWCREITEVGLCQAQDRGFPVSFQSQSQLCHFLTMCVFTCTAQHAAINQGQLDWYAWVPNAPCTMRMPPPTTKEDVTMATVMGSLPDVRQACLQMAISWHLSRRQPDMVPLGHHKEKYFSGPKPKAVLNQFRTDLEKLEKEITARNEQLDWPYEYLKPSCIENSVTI

Mus musculus [2] = assay: Cmax in CD-1 mouse at 30 mg/kg, po; type: ADME, organism-based; set-up: dose 30 mg/kg, route oral; settings: in vivo
Mus musculus [3] = assay: AUC (infinity) in CD-1 mouse at 30 mg/kg, po; type: ADME, organism-based, Plasma; set-up: time infinity, dose 30 mg/kg, route oral; settings: in vivo
[4] = Metabolic stability in mouse liver microsomes measured over 1 hr in absence of NADPH; type: ADME, Microsome
Mus musculus [5] = assay: AUC (infinity) in CD-1 mouse at 3 mg/kg, iv; type: ADME, organism-based, Plasma; set-up: dose 3 mg/kg, route intravenous, time infinity; settings: in vivo
[6] = Aqueous solubility of the compound in PBS buffer at pH 7.4 by LC-UV spectroscopic analysis; type: physicochemical
Liver microsome = assay: Metabolic stability in rat liver microsomes measured over 1 hr in absence of NADPH; type: ADME
[7] = Stability of the compound in HEPES buffer at pH 7.3; type: physicochemical
Mus musculus [8] = assay: Volume of distribution in CD-1 mouse at 3 mg/kg, iv; type: ADME, organism-based; set-up: dose 3 mg/kg, route intravenous; settings: in vivo
[9] = Aqueous solubility of the compound in PBS buffer at pH 7.4 by chemiluminescent nitrogen detection method; type: physicochemical
[10] = target: Cyclooxygenase (Homo sapiens) (UniProt P35354+P23219); assay: Inhibition of COX1/COX2 (unknown origin) using arachidonic acid as substrate assessed as consumption of oxygen preincubated for 5 mins followed by substrate addition at 15 uM; type: protein assay
[11] = Stability of the compound in aqueous buffer at pH 2 to 9; type: physicochemical
[12] = Stability of the compound in presence of glutathione; type: ADME
Mus musculus [13] = assay: Cmax in CD-1 mouse at 3 mg/kg, iv; type: ADME, organism-based; set-up: dose 3 mg/kg, route intravenous; settings: in vivo
[14] = target: T2, Polyunsaturated fatty acid lipoxygenase ALOX15 (Homo sapiens, UniProt P16050)
T2 sequence (P16050 whole entry): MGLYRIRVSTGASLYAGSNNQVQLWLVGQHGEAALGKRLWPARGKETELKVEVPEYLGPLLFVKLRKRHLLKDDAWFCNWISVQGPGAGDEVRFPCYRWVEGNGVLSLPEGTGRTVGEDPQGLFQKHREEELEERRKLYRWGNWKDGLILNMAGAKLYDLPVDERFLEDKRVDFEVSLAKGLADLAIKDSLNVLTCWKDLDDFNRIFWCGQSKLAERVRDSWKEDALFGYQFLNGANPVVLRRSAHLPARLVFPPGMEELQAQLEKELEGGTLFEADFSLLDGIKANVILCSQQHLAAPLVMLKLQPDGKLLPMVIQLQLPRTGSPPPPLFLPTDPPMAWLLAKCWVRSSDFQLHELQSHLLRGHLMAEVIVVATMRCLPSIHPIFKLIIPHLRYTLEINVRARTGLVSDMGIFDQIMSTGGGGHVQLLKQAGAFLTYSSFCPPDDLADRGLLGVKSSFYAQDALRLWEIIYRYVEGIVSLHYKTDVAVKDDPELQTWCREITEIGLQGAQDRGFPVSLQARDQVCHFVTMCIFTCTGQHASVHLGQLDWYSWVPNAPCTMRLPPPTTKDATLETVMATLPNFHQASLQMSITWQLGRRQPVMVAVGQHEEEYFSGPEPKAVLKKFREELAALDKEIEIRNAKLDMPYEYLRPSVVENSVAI

Rattus norvegicus = species on record: Rattus norvegicus; assay: Metabolic stability in rat assessed as glucuronidation; type: ADME, organism-based; settings: in vitro
[15] = target: T3, Polyunsaturated fatty acid lipoxygenase ALOX12 (Mus musculus) (UniProt P39655); assay: Inhibition of 12-LOX in mouse BTC3 cells assessed as inhibition of arachidonic acid/calcium ionophore-induced 12-HETE production after 4 hrs by ELISA; type: cell-based
T3 sequence (whole entry): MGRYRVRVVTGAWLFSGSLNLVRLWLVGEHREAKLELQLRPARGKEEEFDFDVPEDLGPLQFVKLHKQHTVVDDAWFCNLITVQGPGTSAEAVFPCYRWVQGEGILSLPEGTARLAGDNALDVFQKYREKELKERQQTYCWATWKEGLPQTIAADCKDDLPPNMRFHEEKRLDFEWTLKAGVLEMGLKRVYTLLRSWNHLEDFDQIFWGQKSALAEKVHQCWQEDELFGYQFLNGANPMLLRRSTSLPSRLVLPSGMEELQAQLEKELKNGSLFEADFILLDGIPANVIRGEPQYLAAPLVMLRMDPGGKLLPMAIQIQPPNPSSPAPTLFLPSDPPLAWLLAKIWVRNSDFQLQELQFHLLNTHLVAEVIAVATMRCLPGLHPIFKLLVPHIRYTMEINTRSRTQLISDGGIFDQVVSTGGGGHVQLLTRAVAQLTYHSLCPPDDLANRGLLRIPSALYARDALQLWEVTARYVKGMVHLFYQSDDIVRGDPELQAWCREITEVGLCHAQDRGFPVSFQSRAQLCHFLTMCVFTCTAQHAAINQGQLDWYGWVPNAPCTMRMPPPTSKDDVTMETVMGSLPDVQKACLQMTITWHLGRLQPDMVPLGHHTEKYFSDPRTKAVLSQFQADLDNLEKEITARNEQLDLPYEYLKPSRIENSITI

[16] = Metabolic stability in mouse plasma assessed as compound remaining measured at 2 hrs; type: ADME, cell-free; settings: read-out: Stability
[17] = Stability of the compound in PBS buffer at pH 7.4 measured at 48 hrs; type: physicochemical; settings: read-out: Stability

Q: For `Nc1ccccc1CNc1ccc(S(=O)(=O)Nc2nccs2)cc1`, which IC50 [1] is on record?
A: > 40 µM

Q: For `O=S(=O)(Nc1nccs1)c1ccc(NCc2ccccc2)cc1`, which IC50 [1] is on record?
A: > 40 µM

Q: For `O=S(=O)(Nc1nccs1)c1ccc(NCc2ccccc2O)cc1`, which IC50 [1] is on record?
A: > 40 µM

Q: With `O=S(=O)(Nc1nccs1)c1ccc(NCc2cccc(O)c2)cc1` as the compound, how does the IC50 [1] read?
A: > 40 µM

Q: Which Cmax (Mus musculus [2]) does the source give for `COc1cccc(CNc2ccc(S(=O)(=O)Nc3nc4ccccc4s3)cc2)c1O` [VLX-1005] here?
A: 38 µM

Q: And the AUC (Mus musculus [3])?
A: 67 µM·h

Q: And the Stability [4]?
A: Stable

Q: What about the AUC (Mus musculus [5]) of the same compound?
A: 34 µM·h

Q: And the solubility [6]?
A: < 5 µg/mL

Q: And the Stability (Liver microsome)?
A: Stable

Q: What about the Stability [7] of the same compound?
A: Stable

Q: What about the Vd (Mus musculus [8]) of the same compound?
A: 0.55 L/kg

Q: And the solubility [9]?
A: soluble

Q: And the inhibition [10]?
A: inactive

Q: What about the Stability [11] of the same compound?
A: Stable

Q: What about the Stability [12] of the same compound?
A: Stable

Q: And the Cmax (Mus musculus [13])?
A: 112 µM

Q: Which IC50 [14] does the source give for `O=S(=O)(Nc1nc2ccccc2s1)c1ccc(NCc2cccc(Cl)c2O)cc1` here?
A: 1.3 µM

Q: What about the Stability (Rattus norvegicus) of the same compound?
A: Unstable

Q: With `COc1cccc(CNc2ccc(S(=O)(=O)Nc3nc4ccccc4[nH]3)cc2)c1O` as the compound, how does the inhibition [10] read?
A: inactive

Q: Which Stability [4] does the source give for `COc1cccc(CNc2ccc(S(=O)(=O)Nc3nc4ccccc4o3)cc2)c1O` here?
A: Stable

Q: What about the inhibition [15] of the same compound?
A: Active

Q: And the remaining at 2 h [16]?
A: 100%

Q: And the remaining at 48 h [17]?
A: 100%

Q: And the Stability (Liver microsome)?
A: Stable

Q: What about the solubility [9] of the same compound?
A: soluble

Q: And the inhibition [10]?
A: inactive
